According to patent US20100279324A1, “Assay For Detecting Mycobacterial Infection” (The University of Birmingham, priority 2007, published 2010):

Test system: T cells present in the PBL's
Format: cell-based, human
Details: anti-CD1b antibody, TB patients

Q: For mycolic acid, which “CD1b restriction of antigen-specific response” value is on record?
A: CD1b restricted
